This note sets out measurements from patent US7393853B2, “Use of substituted 8-Perfluoroalkyl-6,7,8,9-tetrahydropyrimido[1,2-a] pyrimidin-4-one derivatives as therapeutic agents” (Sanofi Aventis, priority 2003, dated 2008).

Each structure is given as a SMILES string. Where a name gives a salt, the structure may show the parent alone.

Sequence of GSK3β (P49841 whole entry, species assumed): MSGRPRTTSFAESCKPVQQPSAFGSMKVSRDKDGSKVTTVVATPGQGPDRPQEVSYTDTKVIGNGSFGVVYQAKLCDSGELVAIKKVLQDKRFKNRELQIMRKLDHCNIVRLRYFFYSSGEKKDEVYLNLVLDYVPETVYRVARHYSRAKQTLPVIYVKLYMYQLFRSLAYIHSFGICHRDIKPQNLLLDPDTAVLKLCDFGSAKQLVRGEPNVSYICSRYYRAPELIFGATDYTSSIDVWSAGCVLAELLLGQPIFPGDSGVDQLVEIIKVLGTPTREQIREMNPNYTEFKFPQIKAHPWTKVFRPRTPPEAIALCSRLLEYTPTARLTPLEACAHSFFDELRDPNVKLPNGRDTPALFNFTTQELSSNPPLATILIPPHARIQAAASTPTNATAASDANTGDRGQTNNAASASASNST

The first data set addresses GSK3β (Homo sapiens, UniProt P49841). Briefly: Inhibitory activity against GSK3β (33P-ATP phosphorylation of prephosphorylated GS1 peptide, two protocols). It is filed as biochemical. To be noted: protocol (first or second) not specified. As to the method:
Inhibitory Activity of the Medicament of the Present Invention Against GSK3β
Two different protocols can be used.
In a first protocol: 7.5 μM of prephosphorylated GS1 peptide and 10 μM ATP (containing 300,000 cpm of 33P-ATP) were incubated in 25 mM Tris-HCl, pH 7.5, 0.6 mM DTT, 6 mM MgCl2, 0.6 mM EGTA, 0.05 mg/ml BSA buffer for 1 hour at room temperature in the presence of GSK3beta (total reaction volume: 100 microliters).
In a second protocol: 4.1 μM of prephosphorylated GS1 peptide and 42 μM ATP (containing 260,000 cpm 33P-ATP) were incubated in 80 mM Mes-NaOH, pH 6.5, 1 mM Mg acetate, 0.5 mM EGTA, 5 mM 2-mercaptoethanol, 0.02% Tween 20, 10% glycerol buffer for 2 hours at room temperature in the presence of GSK3beta.
Inhibitors were solubilized in DMSO (final solvent concentration in the reaction medium, 1%).
The reaction was stopped with 100 microliters of a solution made of 25 g polyphosphoric acid (85% P2O5), 126 ml 85% H3PO4, H2O to 500 ml and then diluted to 1:100 before use. An aliquot of the reaction mixture was then transferred to Whatman P81 cation exchange filters and rinsed with the solution described above. Incorporated 33P radioactivity was determined by liquid scintillation spectrometry.
The phosphorylated GS-1 peptide had the following sequence: […]
For orientation: IC50 means the concentration that gives 50% inhibition. `O=C(CN1c2nc(-c3ccncc3)cc(=O)n2CCC1C(F)(F)F)c1ccccc1` (single isomer, unassigned; (-)) [compound 6, (−)-9-(2-Oxo-2-phenyl-ethyl)-2-(4-pyridinyl)-8-(trifluoromethyl)-6,7,8,9-tetrahydro-4H-pyrimido[1,2-a]pyrimidin-4-one hydrochloride (1:1).] showed a half-maximal inhibitory concentration (IC50) of 3 nM.

Tested on in a further data set: not given
Assay: not given
Details: not given
The melting point is the temperature, or range, at which the solid turns liquid. The compound `N#Cc1ccc(C(=O)CN2c3nc(-c4ccncn4)cc(=O)n3CCC2C(F)(F)F)cc1` (racemic) [compound 17, 9-[2-(4-Cyanophenyl)-2-oxoethyl]-2-pyrimidin-4-yl-8-(trifluoromethyl)-6,7,8,9-tetrahydro-4H-pyrimido[1,2-a]pyrimidin-4-one] registered a melting point of 201 to 203 °C.

In turn, `O=C(CN1c2nc(-c3ccncn3)cc(=O)n2CCC1C(F)(F)F)c1cccc(F)c1` (racemic) [compound 14, 9-[2-(3-Fluorophenyl)-2-oxoethyl]-2-pyrimidin-4-yl-8-(trifluoromethyl)-6,7,8,9-tetrahydro-4H-pyrimido[1,2-a]pyrimidin-4-one] registered a melting point of 245 to 247 °C. Regarding `O=C(CN1c2nc(-c3ccncn3)cc(=O)n2CCC1C(F)(F)F)c1ccc(F)cc1` (racemic) [compound 16, 9-[2-(4-Fluorophenyl)-2-oxoethyl]-2-pyrimidin-4-yl-8-(trifluoromethyl)-6,7,8,9-tetrahydro-4H-pyrimido[1,2-a]pyrimidin-4-one], the melting point lay in the range of 253 to 255 °C. The same measure, in the same setting: in the case of `O=C(CN1c2nc(-c3ccncn3)cc(=O)n2CCC1C(F)(F)F)c1cccc(Br)c1` (racemic) [compound 13, 9-[2-(3-Bromophenyl)-2-oxoethyl]-2-pyrimidin-4-yl-8-(trifluoromethyl)-6,7,8,9-tetrahydro-4H-pyrimido[1,2-a]pyrimidin-4-one] it was 236 to 238 °C; in that of `O=C(CN1c2nc(-c3ccncc3)c(F)c(=O)n2CCC1C(F)(F)F)c1ccccc1` (racemic) [compound 10, 3-Fluoro-9-(2-oxo-2-phenylethyl)-2-pyridin-4-yl-8-(trifluoromethyl)-6,7,8,9-tetrahydro-4H-pyrimido[1,2-a]pyrimidin-4-one], 241 to 242 °C; in that of `O=c1cc(-c2ccncn2)nc2n1CCC(C(F)(F)F)N2CCc1ccccc1` (racemic) [compound 12, 9-(2-Phenylethyl)-2-pyrimidin-4-yl-8-(trifluoromethyl)-6,7,8,9-tetrahydro-4H-pyrimido[1,2-a]pyrimidin-4-one], 147 to 149 °C. The same measure, in the same setting: then `O=c1cc(-c2ccncn2)nc2n1CCC(C(F)(F)F)N2Cc1ccccc1` (racemic) [compound 11, 9-(Phenylmethyl)-2-pyrimidin-4-yl-8-(trifluoromethyl)-6,7,8,9-tetrahydro-4H-pyrimido[1,2-a]pyrimidin-4-one], with 177 to 179 °C; and `Cc1ccc(C(=O)CN2c3nc(-c4ccncn4)cc(=O)n3CCC2C(F)(F)F)cc1` (racemic) [compound 15, 9-[2-(4-Methylphenyl)-2-oxoethyl]-2-pyrimidin-4-yl-8-(trifluoromethyl)-6,7,8,9-tetrahydro-4H-pyrimido[1,2-a]pyrimidin-4-one], with 239 to 241 °C. The same measure, in the same setting: then `O=C(CN1c2nc(-c3ccncn3)cc(=O)n2CCC1C(F)(F)F)c1ccc(-c2ccccc2)cc1` (racemic) [compound 18, 9-(2-biphenyl-4-yl-2-oxoethyl)-2-pyrimidin-4-yl-8-(trifluoromethyl)-6,7,8,9-tetrahydro-4H-pyrimido[1,2-a]pyrimidin-4-one], with 231 to 233 °C.
